Data taken from US20020076747A1, “Method for expanding embryonic stem cells in serum-free culture” (priority 1997, published 2002).

Key:
[1] = test system: D3 ES cells; test: Media formulation evaluation assay: ES cell colony morphology, alkaline phosphatase staining and plating efficiency; format: cell-based, mouse; conditions: for general plating efficiency and number of undifferentiated ES colonies with or without the component: component added to serum-free formulation (15% in DMEM): 15 μg/L ferric citrate, 0.3 μg/L glycl-histidyl-lysine, 300 μg/L ethanolamine
Experimental: ES D3 ES cells were used (Doetschman, T. C. et al., J. Embryol. Exp. Morph. 87:27-45 (1985)). Unless otherwise specified, D3 cells at passage 15 were used. Trypsin-EDTA (0.25%, 1 mM) was used to remove cells from plates after rinsing the cell layer with phosphate buffered saline (PBS). Cells were cultured in a humidified 37° C., 10% CO2 incubator.
The protocol for a media formulation evaluation assay was as follows. The source of ES cells for the experiments was a sub-confluent dish of ES cells maintained on a feeder layer in ES cell medium with LIF. Feeder layers for experimental conditions were established in 6 well plates (NUNC) by seeding 3-5×10^4 feeder cell/cm^2 and allowing the cells to attach. ES cells were trypsinized to form a cell suspension. Trypsin activity was quenched with serum-supplemented medium, and cells were pelleted by centrifugation at 500× g. The medium was removed and the ES cells were resuspended in DMEM containing 2 mM L-glutamine, 50 U/mL penicillin, 50 ug/mL streptomycin, 100 uM NEAA, and 100 uM 2-mercaptoethanol (final concentrations).
ES cells were then mixed with respective test media (described infra) at a concentration of […]. Feeder cell media was then removed from the feeder plates, and the feeder layers were washed once with 2 mL of DMEM (that was not supplemented with serum or any other additives). 2.5 mL of test medium and ES cells (225/well) were added to each well of feeder cells. Test conditions were assayed in triplicate (3 wells/test condition). The cells were incubated for 7 days while observations were made regarding ES cell growth parameters. Incubation conditions were 37° C., 10% CO2 in air, and humidified atmosphere.
At the end of the 7 day culture period, observations were made and then ES cells were harvested, fixed and assayed for the presence of alkaline phosphatase by using a histochemical assay (Sigma diagnostic kit 86-R, Sigma, St. Louis, Mo.). Cells were fixed and assayed according to the manufacturer's directions. In this assay, cells which express alkaline phosphatase stain dark pink or red. ES cell colonies were rated in terms of morphology and strength of alkaline phosphatase staining according to the following parameters. Class I colonies are round, stain dark pink, and have the desired, undifferentiated colony morphology characterized by a well-defined colony border. Class II colonies are those that have begun to differentiate, are stained at least 60% pink, and have a more flattened appearance, with a poorly defined border. […] Plating efficiency was determined by dividing the total number of colonies obtained by the input number of ES cells (225/well).

[2] = test system: feeder cells; test: Feeder layer morphology in ES cell cultures; format: cell-based; conditions: AAP 50 mg/L, independent of LIF
From the text: One aspect of the supplement that was sub-optimal related to the morphology of the feeder layer in ES cell cultures maintained in the same culture vessel for more than three days. Generally, ES cells are passaged every two to three days. Typically, during selection of antibiotic-resistant ES cells, cultures are maintained without passaging for ten or more days. […] The detached cells were seen floating in the growth medium.
In order to improve the formulation, the addition of L-ascorbic acid-2-phosphate to the formulation was evaluated. In an evaluation assay (as in Example 1), the medium was supplemented with the serum-free supplement (to a fmal concentration of 15%), either with or without L-ascorbic acid-2-phosphate (50 mg/L final concentration), and 10 ng/mL LIF (final concentration).
The numbers within parentheses indicate what percentage of total ES cell colonies that the colonies with the indicated degree of differentiation represented. In Table 4, “good” feeder cell morphology reflects a more fibroblast-like character and smooth borders, rather than a spindly, ragged-looking character.

NCCO [ethanolamine]
general plating efficiency and number of undifferentiated ES colonies with or without the component [1]: no different

glycl-histidyl-lysine
general plating efficiency and number of undifferentiated ES colonies with or without the component [1]: no different

O=C1O[C@H]([C@@H](O)CO)C(O)=C1OP(=O)(O)O [L-ascorbic acid-2-phosphate]
effect on plating efficiency ([1]; factor alone): little effect
colony size ([1]; in the absence of LIF): much improved
percent of class I colonies ([1]; in the absence of LIF): increased
percent of class III colonies ([1]; in the absence of LIF): decreased
average colony size (an indication of growth rate) ([1]; with LIF in the culture media): increase
effect on the morphology class of colonies obtained ([1]; with LIF in the culture media): virtually no effect
appearance of the feeder layer [2]: improved

ferric citrate
general plating efficiency and number of undifferentiated ES colonies with or without the component [1]: no different
